This passage reports IC50 results from patent US9765068B2, “PRMT5 inhibitors and uses thereof” (Epizyme, Inc., priority 2012, dated 2017).

Chain of PRMT5/MEP50 (O14744 other isoform, or with tags, fused parts or gaps): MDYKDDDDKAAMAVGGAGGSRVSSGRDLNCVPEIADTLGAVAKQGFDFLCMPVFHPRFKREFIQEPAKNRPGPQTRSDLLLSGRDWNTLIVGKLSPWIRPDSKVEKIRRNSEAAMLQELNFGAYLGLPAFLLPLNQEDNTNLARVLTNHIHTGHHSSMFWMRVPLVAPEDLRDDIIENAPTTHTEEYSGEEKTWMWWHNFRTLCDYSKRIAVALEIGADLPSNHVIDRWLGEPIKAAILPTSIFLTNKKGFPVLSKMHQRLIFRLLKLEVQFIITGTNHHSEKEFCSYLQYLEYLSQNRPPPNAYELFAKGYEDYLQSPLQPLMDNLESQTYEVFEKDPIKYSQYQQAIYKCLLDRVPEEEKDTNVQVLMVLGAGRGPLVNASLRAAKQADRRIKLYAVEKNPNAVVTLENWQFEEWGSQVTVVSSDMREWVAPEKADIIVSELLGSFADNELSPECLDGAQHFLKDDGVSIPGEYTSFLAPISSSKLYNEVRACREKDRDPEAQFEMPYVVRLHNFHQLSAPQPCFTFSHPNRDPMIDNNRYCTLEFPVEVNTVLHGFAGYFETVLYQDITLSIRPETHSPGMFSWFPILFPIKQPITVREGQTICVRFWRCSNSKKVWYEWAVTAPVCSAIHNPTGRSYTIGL
Chain of PRMT5/MEP50 (Q9BQA1 other isoform, or with tags, fused parts or gaps partner): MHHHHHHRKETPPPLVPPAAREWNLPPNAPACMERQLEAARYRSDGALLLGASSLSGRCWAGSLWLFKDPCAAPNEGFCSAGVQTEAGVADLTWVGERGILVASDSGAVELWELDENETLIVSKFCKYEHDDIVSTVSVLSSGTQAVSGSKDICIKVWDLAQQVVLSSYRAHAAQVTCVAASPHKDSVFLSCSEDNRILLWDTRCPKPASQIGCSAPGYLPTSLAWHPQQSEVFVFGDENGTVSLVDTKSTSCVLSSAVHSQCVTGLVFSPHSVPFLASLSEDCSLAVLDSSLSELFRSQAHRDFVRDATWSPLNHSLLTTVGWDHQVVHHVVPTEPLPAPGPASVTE

The assay concerns the target PRMT5/MEP50 (Homo sapiens (Human), UniProt O14744). The assay is described as follows: PRMT5 Biochemical Assay (PRMT5/MEP50 enzyme assay on peptide substrate, 3H-SAM Flashplate). Particulars: PRMT5/MEP50 4 nM, 3H-SAM 75 nM, peptide 40 nM. From the text:
General Materials. S-adenosylmethionine (SAM), S-adenosylhomocysteine (SAH), bicine, KCl, Tween20, dimethylsulfoxide (DMSO), bovine skin gelatin (BSG), and Tris(2-carboxyethyl)phosphine hydrochloride solution (TCEP) were purchased from Sigma-Aldrich at the highest level of purity possible. ^3H-SAM was purchase from American Radiolabeled Chemicals with a specific activity of 80 Ci/mmol. 384-well streptavidin Flashplates were purchased from PerkinElmer.
Substrates. Peptide representative of human histone H4 residues 1-15 was synthesized with a C-terminal linker-affinity tag motif and a C-terminal amide cap by 21st Century Biochemicals. […] The sequence was Ac-[…][K-Biot]-amide (SEQ ID NO.:3).
Full-length human MEP50 (NM_024102) clone was amplified from a human testis cDNA library incorporating a 5′ sequence encoding a 6-histidine tag (MHHHHHH) (SEQ ID NO.:5) fused directly to Arg 2 of MEP50. The amplified genes were sublconed into pENTR/D/TEV (Life Technologies) and subsequently transferred by Gateway™ attL×attR recombination to pDEST8 baculvirus expression vector (Life Technologies).
Protein Expression. Recombinant baculovirus and Baculovirus-Infected Insect Cells (BIIC) were generated according to Bac-to-Bac kit instructions (Life Technologies) and Wasilko, 2006, respectively. Protein over-expression was accomplished by infecting exponentially growing Spodoptera frugiperda (SF9) cell culture at 1.2×10^6 cell/ml with a 5000 fold dilution of BIIC stock. Infections were carried out at 27° C. for 72 hours, harvested by centrifugation, and stored at −80° C. for purification.
Protein Purification. […] Flag-PRMT5/6His-MeP50 was eluted with 300 mM Imidazole in the same buffer. […] Reference: Wasilko, D. J. and S. E. Lee: “TIPS: titerless infected-cells preservation and scale-up” Bioprocess J., 5 (2006), pp. 29-32.
General Procedure for PRMT5/MEP50 Enzyme Assays on Peptide Substrates.
The assays were all performed in a buffer consisting of 20 mM Bicine (pH=7.6), 1 mM TCEP, 0.005% BSG, and 0.002% Tween20, prepared on the day of use. Compounds in 100% DMSO (1 ul) were spotted into a polypropylene 384-well V-bottom plates (Greiner) using a Platemate Plus outfitted with a 384-channel head (Thermo Scientific). DMSO (1 ul) was added to Columns 11, 12, 23, 24, rows A-H for the maximum signal control and 1 ul of SAH, a known product and inhibitor of PRMT5/MEP50, was added to columns 11, 12, 23, 24, rows I-P for the minimum signal control. A cocktail (40 ul) containing the PRMT5/MEP50 enzyme and the peptide was added by Multidrop Combi (Thermo-Fisher). The compounds were allowed to incubate with PRMT5/MEP50 for 30 min at 25 degrees Celsius, then a cocktail (10 ul) containing ^3H-SAM was added to initiate the reaction (final volume=51 ul). The final concentrations of the components were as follows: PRMT5/MEP50 was 4 nM, ^3H-SAM was 75 nM, peptide was 40 nM, SAH in the minimum signal control wells was 100 uM, and the DMSO concentration was 1%. The assays were stopped by the addition of non-radioactive SAM (10 ul) to a final concentration of 600 uM, which dilutes the ^3H-SAM to a level where its incorporation into the peptide substrate is no longer detectable. 50 ul of the reaction in the 384-well polypropylene plate was then transferred to a 384-well Flashplate and the biotinylated peptides were allowed to bind to the streptavidin surface for at least 1 hour before being washed three times with 0.1% Tween20 in a Biotek ELx405 plate washer. The plates were then read in a PerkinElmer TopCount plate reader to measure the quantity of ^3H-labeled peptide bound to the Flashplate surface, measured as disintegrations per minute (dpm) or alternatively, referred to as counts per minute (cpm).
[formula] Where dpm=disintegrations per minute, cmpd=signal in assay well, and min and max are the respective minimum and maximum signal controls.
Take `COc1ccc(OCC(=O)NCC(O)CN2CCc3ccccc3C2)cc1` (stereo not shown) [Compound 12, N-(3-(3,4-dihydroisoquinolin-2(1H)-yl)-2-hydroxypropyl)-2-(4-methoxyphenoxy)acetamide]: the IC50 – broadly, the concentration at which inhibition is half-maximal – lay within 0.101 to 1 µM.

Consider `Cn1cnc2ccc(NCC(=O)NCC(O)CN3CCc4ccccc4C3)cc21` (stereo not shown) [Compound 69], for which the IC50 lay in the range of 0.101 to 1 µM. Take `Cc1ccccc1OCC(=O)NCC(O)CN1CCc2ccccc2C1` (stereo not shown) [Compound 15, N-(3-(3,4-dihydroisoquinolin-2(1H)-yl)-2-hydroxypropyl)-2-(o-tolyloxy)acetamide]: the IC50 is 0.101 to 1 µM. For the compound `CS(=O)(=O)c1ccc(OCC(=O)NCC(O)CN2CCc3ccccc3C2)cc1` (stereo not shown) [Compound 14], the half-maximal inhibitory concentration (IC50) fell in the range of 1 to 10 µM. With `CN1CC(c2ccccc2OCC(=O)NCC(O)CN2CCc3ccccc3C2)C1` (stereo not shown) [Compound 135] the figure was 1 to 10 µM; with `Cn1nccc1-c1cccc(CC(=O)NCC(O)CN2CCc3ccccc3C2)c1` (stereo not shown) [Compound 54, N-(3-(3,4-dihydroisoquinolin-2(1H)-yl)-2-hydroxypropyl)-2-(3-(1-methyl-1H-pyrazol-5-yl)phenyl)acetamide], 0.101 to 1 µM. For the compound `O=C(COc1cccc2c1CCCN2)NCC(O)CN1CCc2ccccc2C1` (stereo not shown) [Compound 150], the concentration for half-maximal inhibition (IC50) was in the range of 0.101 to 1 µM. On to `CN1CCN(c2ccccc2OCC(=O)NC[C@@H](O)CN2CCc3ccccc3C2)CC1` [Compound 85], for which the 50% inhibitory concentration (IC50) is 1 to 10 µM. With `N#Cc1ccccc1OCC(=O)NCC(O)CN1CCc2ccccc2C1` (stereo not shown) [Compound 17] the figure was 0.101 to 1 µM. The value for `O=C(COc1ccccc1C1CCNC1)NCC(O)CN1CCc2ccccc2C1` (stereo not shown) [Compound 116] was 1 to 10 µM; that for `CN1CCc2cccc(OCC(=O)NCC(O)CN3CCc4ccccc4C3)c2C1` (stereo not shown) [Compound 120] was 0.101 to 1 µM; that for `O=C(COc1ccccc1C1CNC1)NCC(O)CN1CCc2ccccc2C1` (stereo not shown) [Compound 132] was 1 to 10 µM. With `CN(CC(O)CN1CCc2ccccc2C1)C(=O)CCc1ccccc1` (stereo not shown) [Compound 3] the figure was 1 to 10 µM; with `O=C(CNc1ccccc1)NCC(O)CN1CCc2ccccc2C1` (stereo not shown) [Compound 18], 1 to 10 µM. For the compound `CC(C)(Oc1ccccc1)C(=O)NCC(O)CN1CCc2ccccc2C1` (stereo not shown) [Compound 25, N-(3-(3,4-dihydroisoquinolin-2(1H)-yl)-2-hydroxypropyl)-2-methyl-2-phenoxypropanamide], the IC50 was in the range of 0.101 to 1 µM.

`O=C(COc1ccccc1)NC[C@H](O)CN1CCc2ccccc2C1` [Compound 32]: the IC50 was 0.101 to 1 µM. The value for `CN1CCC(c2ccccc2OCC(=O)NCC(O)CN2CCc3ccccc3C2)C1` (stereo not shown) [Compound 136] was 1 to 10 µM. With `O=C(COc1cccc(F)c1)NCC(O)CN1CCc2ccccc2C1` (stereo not shown) [Compound 7, N-(3-(3,4-dihydroisoquinolin-2(1H)-yl)-2-hydroxypropyl)-2-(3-fluorophenoxy)acetamide] the figure was 0.101 to 1 µM; with `O=C(COc1cccc(NC2CCOCC2)n1)NCC(O)CN1CCc2ccccc2C1` (stereo not shown) [Compound 121], 1 to 10 µM. The value for `CC(=O)N1CCN(S(=O)(=O)c2ccccc2OCC(=O)NCC(O)CN2CCc3ccccc3C2)CC1` (stereo not shown) [Compound 122] was 0.101 to 1 µM; that for `CN(C)c1ccc(OCC(=O)NCC(O)CN2CCc3ccccc3C2)cc1` (stereo not shown) [Compound 35] was 0.101 to 1 µM; that for `CC(=O)Nc1cccc(OCC(=O)NCC(O)CN2CCc3ccccc3C2)c1` (stereo not shown) [Compound 31, 2-(3-acetamidophenoxy)-N-(3-(3,4-dihydroisoquinolin-2(1H)-yl)-2-hydroxypropyl)acetamide] was 1 to 10 µM. `CN1CCC(c2ccccc2OCC(=O)NCC(O)CN2CCc3ccccc3C2)CC1` (stereo not shown) [Compound 134]: the half-inhibitory concentration (IC50) lay within 0.101 to 1 µM.

Regarding `O=C(COCc1cccnc1)NCC(O)CN1CCc2ccccc2C1` (stereo not shown) [Compound 152, N-(3-(3,4-dihydroisoquinolin-2(1H)-yl)-2-hydroxypropyl)-2-(pyridin-3-ylmethoxy)acetamide], the 50% inhibitory concentration (IC50) lay within 1 to 10 µM. With `O=C(Cc1ccncc1)NCC(O)CN1CCc2ccccc2C1` (stereo not shown) [Compound 51] the figure was 10 to 50 µM.

For the compound `NC(=O)c1ccc(OCC(=O)NCC(O)CN2CCc3ccccc3C2)cc1` (stereo not shown) [Compound 13], the IC50 is 1 to 10 µM.

Turning to `NC(=O)c1ccccc1OCC(=O)NCC(O)CN1CCc2ccccc2C1` (stereo not shown) [Compound 29], the half-inhibitory concentration (IC50) lay within 0.101 to 1 µM. The value for `CN(C)c1ccc2cccc(OCC(=O)NC[C@H](O)CN3CCc4ccccc4C3)c2n1` [Compound 104] was 0.101 to 1 µM; that for `CN(C)c1cncc(OCC(=O)NCC(O)CN2CCc3ccccc3C2)c1` (stereo not shown) [Compound 143] was 1 to 10 µM. With `CN(C)C(=O)c1ccccc1OCC(=O)NCC(O)CN1CCc2ccccc2C1` (stereo not shown) [Compound 113] the figure was 0.101 to 1 µM. With `N#Cc1ccc(OCC(=O)NCC(O)CN2CCc3ccccc3C2)cc1` (stereo not shown) [Compound 11] the figure was 0.101 to 1 µM; with `CC(Oc1ccccc1S(C)(=O)=O)C(=O)NCC(O)CN1CCc2ccccc2C1` (stereo not shown) [Compound 114], 0.101 to 1 µM.

For `O=C(COc1ccccc1F)NCC(O)CN1CCc2ccccc2C1` (stereo not shown) [Compound 16], the IC50 was in the range of 0.101 to 1 µM. As to `CN(C)c1ncccc1OCC(=O)NCC(O)CN1CCc2ccccc2C1` (stereo not shown) [Compound 127], the IC50 lay within 0.101 to 1 µM. Regarding `O=C(Cc1ccccc1)NC[C@H](O)CN1CCc2ccccc2C1` [Compound 55], the half-inhibitory concentration (IC50) is 0.101 to 1 µM. For `O=C(COc1cccc(C(=O)N2CCOCC2)c1)NCC(O)CN1CCc2ccccc2C1` (stereo not shown) [Compound 83], the 50% inhibitory concentration (IC50) is 0.101 to 1 µM. With `NS(=O)(=O)c1ccc(OCC(=O)NCC(O)CN2CCc3ccccc3C2)cc1` (stereo not shown) [Compound 52] the figure was 1 to 10 µM; with `O=C(COC1CCOCC1)NCC(O)CN1CCc2ccccc2C1` (stereo not shown) [Compound 41], 1 to 10 µM. As to `O=C(COc1ccccc1)NC[C@@H](O)CN1CCc2ccccc2C1` [Compound 33], the half-maximal inhibitory concentration (IC50) lay in the range of 1 to 10 µM. In the case of `NS(=O)(=O)c1cccc(OCC(=O)NCC(O)CN2CCc3ccccc3C2)c1` (stereo not shown) [Compound 131], the IC50 was 1 to 10 µM. With `Cn1cnc2cc(OCC(=O)NCC(O)CN3CCc4ccccc4C3)ccc21` (stereo not shown) [Compound 46, N-(3-(3,4-dihydroisoquinolin-2(1H)-yl)-2-hydroxypropyl)-2-((1-methyl-1H-benzo[d]imidazol-5-yl)oxy)acetamide] the figure was 0.101 to 1 µM; with `O=C(Cc1cccc2cccnc12)NCC(O)CN1CCc2ccccc2C1` (stereo not shown) [Compound 60, N-(3-(3,4-dihydroisoquinolin-2(1H)-yl)-2-hydroxypropyl)-2-(quinolin-8-yl)acetamide], 0.101 to 1 µM. The value for `CS(=O)(=O)Nc1cccnc1OCC(=O)NCC(O)CN1CCc2ccccc2C1` (stereo not shown) [Compound 140] was 1 to 10 µM. With `CS(=O)(=O)Nc1ccc(OCC(=O)NCC(O)CN2CCc3ccccc3C2)cc1` (stereo not shown) [Compound 42] the figure was 0.101 to 1 µM; with `O=C(CC1CCCCC1)NC[C@@H](O)CN1CCc2ccccc2C1` [Compound 58], 10 to 50 µM. With `O=C(COc1ccccc1-c1ncc[nH]1)NCC(O)CN1CCc2ccccc2C1` (stereo not shown) [Compound 137], the concentration for half-maximal inhibition (IC50) lay in the range of 0.101 to 1 µM. With `NC(=O)c1cccc(OCC(=O)NCC(O)CN2CCc3ccccc3C2)c1` (stereo not shown) [Compound 34, 3-(2-((3-(3,4-dihydroisoquinolin-2(1H)-yl)-2-hydroxypropyl)amino)-2-oxoethoxy)benzamide] the figure was 0.101 to 1 µM; with `CC(=O)Nc1ccccc1OCC(=O)NCC(O)CN1CCc2ccccc2C1` (stereo not shown) [Compound 36], 0.101 to 1 µM. With `CNC(=O)c1ccccc1OCC(=O)NCC(O)CN1CCc2ccccc2C1` (stereo not shown) [Compound 112] the figure was 0.101 to 1 µM.
